{
  "source": "patent US10081617B2",
  "about": "“Factor XIa inhibitors” (MERCK SHARP & DOHME CORP., priority 2015, dated 2018)",
  "target": "purified human Factor XIa (Homo sapiens (Human), UniProt P03951)",
  "sequence (P03951 388-625)": "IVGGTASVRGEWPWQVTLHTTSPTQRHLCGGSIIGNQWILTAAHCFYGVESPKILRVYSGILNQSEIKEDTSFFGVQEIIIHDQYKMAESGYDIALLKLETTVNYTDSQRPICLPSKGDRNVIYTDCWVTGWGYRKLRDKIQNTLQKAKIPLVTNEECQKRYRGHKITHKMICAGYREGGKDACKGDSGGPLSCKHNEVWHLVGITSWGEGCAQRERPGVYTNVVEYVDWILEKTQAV",
  "sequence (P03951 19-387 partner)": "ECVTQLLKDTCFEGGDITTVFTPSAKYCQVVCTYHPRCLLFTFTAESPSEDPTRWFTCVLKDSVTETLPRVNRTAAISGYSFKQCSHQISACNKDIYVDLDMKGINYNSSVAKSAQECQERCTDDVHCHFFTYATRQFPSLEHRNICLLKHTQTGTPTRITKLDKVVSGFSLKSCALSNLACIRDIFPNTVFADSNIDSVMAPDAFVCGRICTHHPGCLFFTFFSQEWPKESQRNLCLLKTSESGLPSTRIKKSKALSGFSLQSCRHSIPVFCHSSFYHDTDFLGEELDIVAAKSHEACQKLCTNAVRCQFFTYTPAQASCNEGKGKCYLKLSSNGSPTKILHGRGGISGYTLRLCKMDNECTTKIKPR",
  "test": "Factor XIa Assay",
  "assay_type": "biochemical",
  "details": "substrate Z-Gly-Pro-Arg-AFC; value printed in the compound table of Example 12; read-out: FXIa Ki",
  "description": "The effectiveness of a compound of the present invention as an inhibitor of Coagulation Factor XIa can be determined using a relevant purified serine protease, and an appropriate synthetic substrate. The rate of hydrolysis of the chromogenic or fluorogenic substrate by the relevant serine protease was measured both in the absence and presence of compounds of the present invention. Assays were conducted at room temperature or at 37° C. […] A decrease in the rate of fluorescence change in the presence of inhibitor is indicative of enzyme inhibition. Such methods are known to one skilled in the art. The results of this assay are expressed as the inhibitory constant, Ki.\nFactor XIa determinations were made in 50 mM HEPES buffer at pH 7.4 containing 150 mM NaCl, 5 mM CaCl2, and 0.1% PEG 8000 (polyethylene glycol; JT Baker or Fisher Scientific).\nTimes required to achieve equilibration between enzyme and inhibitor were determined in control experiments. Initial velocities of product formation in the absence (Vo) or presence of inhibitor (Vi) were measured. […]",
  "data": [
    {"smiles": "O=C(O)c1ccc(-c2cnc(C3CCc4cc(-c5cc(Cl)ccc5-n5cnnn5)c[n+]([O-])c43)[nH]2)s1", "note": "(stereo not shown) [Example 12, 5-(2-{3-[5-chloro-2-(1H-tetrazol-1-yl)phenyl]-1-oxido-6,7-dihydro-5H-cyclopenta[b]pyridin-7-yl}-1H-imidazol-5-yl)thiophene-2-carboxylic acid]", "values": [
      {"measurement": "Ki", "result": 3.08, "unit": "nM"}
    ]}
  ]
}
